Source: patent US6914045B2, “Glycopeptide antibiotics” (Wyeth Holdings Corporation, priority 2001, dated 2005)
Values after ≈ are worked out from the molar mass of the structure shown.

What was measured:
Experiment in all cases: in vitro antibacterial evaluation, MIC by broth dilution
Format in all cases: cell-based
Escherichia coli = settings: 18 hours at 35° C.
Staphylococcus sp. = settings: broth dilution, 18 hours at 35° C.
Summary of the method: (§1)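 Test organisms, which included recent clinical isolates resistant to methicillin, penicillin and/or vancomycin, were inoculated at 5×10^5 CFU/mL into Muller-Hinton II […] containing antibiotic at 64-0.06 μg/mL. Minimum inhibitory concentrations were then read as the lowest level inhibiting growth.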

Streptococcus sp. = settings: broth dilution, 18 hours at 35° C.
Summary of the method: as §1

Enterococcus sp. = settings: broth dilution, 18 hours at 35° C.
Summary of the method: as §1

MIC Escherichia coli (ATCC 25922) (Escherichia coli): >128 µg/mL
MIC Escherichia coli (GC 4559) (Escherichia coli): >128 µg/mL
MIC Escherichia coli (GC 4560) (Escherichia coli): 32 µg/mL (≈ 21.9 µM)
MIC Coagulase Negative Staphylococcus (GC 4547) (Staphylococcus sp.): 64 µg/mL (≈ 43.8 µM)
MIC Coagulase Negative Staphylococcus (GC 4548) (Staphylococcus sp.): 64 µg/mL (≈ 43.8 µM)
MIC Coagulase Negative Staphylococcus (GC 4549) (Staphylococcus sp.): 32 µg/mL (≈ 21.9 µM)
MIC Coagulase Negative Staphylococcus (GC 4551) (Staphylococcus sp.): 64 µg/mL (≈ 43.8 µM)
MIC Coagulase Negative Staphylococcus (GC 6257) (Staphylococcus sp.): 64 µg/mL (≈ 43.8 µM)
MIC Staphylococcus aureus (ATCC 29213) (Staphylococcus sp.): 64 µg/mL (≈ 43.8 µM)
MIC Staphylococcus aureus (GC 1131) (Staphylococcus sp.): 128 µg/mL (≈ 87.7 µM)
MIC Staphylococcus aureus (GC 3051) (Staphylococcus sp.): 64 µg/mL (≈ 43.8 µM)
MIC Staphylococcus aureus (GC 3053) (Staphylococcus sp.): 128 µg/mL (≈ 87.7 µM)
MIC Staphylococcus aureus (GC 4541) (Staphylococcus sp.): 64 µg/mL (≈ 43.8 µM)
MIC Staphylococcus aureus (GC 4542) (Staphylococcus sp.): 64 µg/mL (≈ 43.8 µM)
MIC Staphylococcus aureus (GC 4544) (Staphylococcus sp.): 64 µg/mL (≈ 43.8 µM)
MIC Staphylococcus aureus (GC 4545) (Staphylococcus sp.): 64 µg/mL (≈ 43.8 µM)
MIC Staphylococcus aureus-SMITH (GC 4543) (Staphylococcus sp.): 64 µg/mL (≈ 43.8 µM)
MIC Staphylococcus aureus (ATCC 29213) (Staphylococcus sp.; strain ATCC 29213): 64 µg/mL (≈ 43.8 µM)
MIC Staphylococcus aureus (GC 1131) (Staphylococcus sp.; strain GC 1131): 128 µg/mL (≈ 87.7 µM)
MIC Staphylococcus aureus (GC 3051) (Staphylococcus sp.; strain GC 3051): 64 µg/mL (≈ 43.8 µM)
MIC Staphylococcus aureus (GC 3053) (Staphylococcus sp.; strain GC 3053): 128 µg/mL (≈ 87.7 µM)
MIC Staphylococcus aureus (GC 4541) (Staphylococcus sp.; strain GC 4541): 64 µg/mL (≈ 43.8 µM)
MIC Staphylococcus aureus (GC 4542) (Staphylococcus sp.; strain GC 4542): 64 µg/mL (≈ 43.8 µM)
MIC Staphylococcus aureus-SMITH (GC 4543) (Staphylococcus sp.; strain GC 4543): 64 µg/mL (≈ 43.8 µM)
MIC Staphylococcus aureus (GC 4544) (Staphylococcus sp.; strain GC 4544): 64 µg/mL (≈ 43.8 µM)
MIC Staphylococcus aureus (GC 4545) (Staphylococcus sp.; strain GC 4545): 64 µg/mL (≈ 43.8 µM)
MIC Coagulase Negative Staphylococcus (GC 4547) (Staphylococcus sp.; strain GC 4547): 64 µg/mL (≈ 43.8 µM)
MIC Coagulase Negative Staphylococcus (GC 4548) (Staphylococcus sp.; strain GC 4548): 64 µg/mL (≈ 43.8 µM)
MIC Coagulase Negative Staphylococcus (GC 4549) (Staphylococcus sp.; strain GC 4549): 32 µg/mL (≈ 21.9 µM)
MIC Coagulase Negative Staphylococcus (GC 4551) (Staphylococcus sp.; strain GC 4551): 64 µg/mL (≈ 43.8 µM)
MIC Coagulase Negative Staphylococcus (GC 6257) (Staphylococcus sp.; strain GC 6257): 64 µg/mL (≈ 43.8 µM)
MIC Streptococcus agalactiae (GC 4564) (Streptococcus sp.): 64 µg/mL (≈ 43.8 µM)
MIC Streptococcus pneumoniae (ATCC 6301) (Streptococcus sp.): 32 µg/mL (≈ 21.9 µM)
MIC Streptococcus pneumoniae (GC 1894) (Streptococcus sp.): 32 µg/mL (≈ 21.9 µM)
MIC Streptococcus pneumoniae (GC 4565) (Streptococcus sp.): 64 µg/mL (≈ 43.8 µM)
MIC Streptococcus pyogenes (GC 4563) (Streptococcus sp.): 64 µg/mL (≈ 43.8 µM)
MIC Streptococcus pneumoniae (ATCC 6301) (Streptococcus sp.; strain ATCC 6301): 32 µg/mL (≈ 21.9 µM)
MIC Streptococcus pneumoniae (GC 1894) (Streptococcus sp.; strain GC 1894): 32 µg/mL (≈ 21.9 µM)
MIC Streptococcus pyogenes (GC 4563) (Streptococcus sp.; strain GC 4563): 64 µg/mL (≈ 43.8 µM)
MIC Streptococcus agalactiae (GC 4564) (Streptococcus sp.; strain GC 4564): 64 µg/mL (≈ 43.8 µM)
MIC Streptococcus pneumoniae (GC 4565) (Streptococcus sp.; strain GC 4565): 64 µg/mL (≈ 43.8 µM)
MIC Enterococcus avium (GC 4558) (Enterococcus sp.): 64 µg/mL (≈ 43.8 µM)
MIC Enterococcus faecalis (ATCC 29212) (Enterococcus sp.): 128 µg/mL (≈ 87.7 µM)
MIC Enterococcus faecalis (GC 2242) (Enterococcus sp.): 128 µg/mL (≈ 87.7 µM)
MIC Enterococcus faecalis (GC 2691) (Enterococcus sp.): 128 µg/mL (≈ 87.7 µM)
MIC Enterococcus faecalis (GC 3059) (Enterococcus sp.): 128 µg/mL (≈ 87.7 µM)
MIC Enterococcus faecalis (GC 4552) (Enterococcus sp.): 128 µg/mL (≈ 87.7 µM)
MIC Enterococcus faecalis (GC 4553) (Enterococcus sp.): 128 µg/mL (≈ 87.7 µM)
MIC Enterococcus faecalis (GC 4554) (Enterococcus sp.): >128 µg/mL
MIC Enterococcus faecalis (GC 6189) (Enterococcus sp.): 128 µg/mL (≈ 87.7 µM)
MIC Enterococcus faecium (GC 2243) (Enterococcus sp.): 128 µg/mL (≈ 87.7 µM)
MIC Enterococcus faecium (GC 4556) (Enterococcus sp.): 128 µg/mL (≈ 87.7 µM)
MIC Enterococcus faecium (GC 4557) (Enterococcus sp.): 32 µg/mL (≈ 21.9 µM)
MIC Enterococcus faecalis (ATCC 29212) (Enterococcus sp.; strain ATCC 29212): 128 µg/mL (≈ 87.7 µM)
MIC Enterococcus faecalis (GC 2242) (Enterococcus sp.; strain GC 2242): 128 µg/mL (≈ 87.7 µM)
MIC Enterococcus faecium (GC 2243) (Enterococcus sp.; strain GC 2243): 128 µg/mL (≈ 87.7 µM)
MIC Enterococcus faecalis (GC 2691) (Enterococcus sp.; strain GC 2691): 128 µg/mL (≈ 87.7 µM)
MIC Enterococcus faecalis (GC 3059) (Enterococcus sp.; strain GC 3059): 128 µg/mL (≈ 87.7 µM)
MIC Enterococcus faecalis (GC 4552) (Enterococcus sp.; strain GC 4552): 128 µg/mL (≈ 87.7 µM)
MIC Enterococcus faecalis (GC 4553) (Enterococcus sp.; strain GC 4553): 128 µg/mL (≈ 87.7 µM)
MIC Enterococcus faecalis (GC 4554) (Enterococcus sp.; strain GC 4554): >128 µg/mL
MIC Enterococcus faecium (GC 4556) (Enterococcus sp.; strain GC 4556): 128 µg/mL (≈ 87.7 µM)
MIC Enterococcus faecium (GC 4557) (Enterococcus sp.; strain GC 4557): 32 µg/mL (≈ 21.9 µM)
MIC Enterococcus avium (GC 4558) (Enterococcus sp.; strain GC 4558): 64 µg/mL (≈ 43.8 µM)
MIC Enterococcus faecalis (GC 6189) (Enterococcus sp.; strain GC 6189): 128 µg/mL (≈ 87.7 µM)
SMILES: CC(c1ccccc1)C1NC(=O)CNC(=O)C(CO)NC(=O)C(CC2CNC(=N)N2C2OC(CO)C(O)C(O)C2O)NC(=O)C(CC2CNC(=N)N2)NC(=O)C(Cc2ccc(OC3OC(CO)C(OC4OC(CO)C(O)C(OCc5ccc(OCc6ccccc6)cc5)C4O)C(O)C3O)cc2)NC1=O (stereo not shown) [Example 246b]
MIC Staphylococcus haemolyticus (GC 4546) (Staphylococcus sp.): 128 µg/mL (≈ 87.7 µM)
MIC Staphylococcus haemolyticus (GC 4546) (Staphylococcus sp.; strain GC 4546): 128 µg/mL (≈ 87.7 µM)
